Several values for one entry are separate records, joined by “and”; a condition that tells them apart may be missing. Equal entries are not always repeated.
Target: Human recombinant carboxy-terminal his-tagged LDHA (amino acids 2-332) (Homo sapiens, UniProt P00338)
Assay: LDHA enzyme inhibition assay (NADH fluorescence)
Conditions: LDHA IC50 (μM), 1 nM LDHA, NADH and pyruvate, stereochemistry of tested sample given

Row | IC50 | Structure (SMILES)
1 | 0.004 µM | O=C1CC(c2ccc(N3CCOCC3)cc2)(c2cccc(Br)n2)NC(=O)C1Sc1ccccc1Cl (stereo not drawn) [Example 38, 6-(6-bromopyridin-2-yl)-3-((2-chlorophenyl)thio)-6-(4-morpholinophenyl)piperidine-2,4-dione]
2 | 0.036 µM | O=C1CC(c2ccc(N3CCOCC3)cc2)(c2cccc(Oc3ccc(F)c(F)c3)n2)NC(=O)C1Sc1ccccc1Cl (stereo not drawn) [Example 40, 3-(2-chlorophenyl)sulfanyl-6-[6-(3,4-difluorophenoxy)-2-pyridyl]6-(4-morpholinophenyl)piperidine-2,4-dione]
3 | 0.016 µM | O=C1CC(c2ccc(N3CCOCC3)cc2)(c2cccc(OC3CCCCC3)n2)NC(=O)C1Sc1ccccc1Cl (stereo not drawn) [Example 41, 3-((2-chlorophenyl)thio)-6-(6-(cyclohexyloxy)pyridin-2-yl)-6-(4-morpholinophenyl)piperidine-2,4-dione]
4 | 0.005 µM | O=C1CC(c2ccsc2)(c2cccc(Oc3ccccn3)n2)NC(=O)C1Sc1ccccc1Cl (stereo not drawn) [Example 46, 3-(2-chlorophenyl) sulfanyl-6-[6-(2-pyridyloxy)-2-pyridyl]-6-(3-thienyl)piperidine-2,4-dione]
5 | 0.025 µM | O=C1CC(c2ccsc2)(c2cccc(OC3CCOC3)n2)NC(=O)C1Sc1ccccc1Cl (stereo not drawn) [Example 49, 3-((2-chlorophenyl)thio)-6-(6-((tetrahydrofuran-3-yl)oxy)pyridin-2-yl)-6-(thiophen-3-yl) piperidine-2,4-dione]
6 | 0.149 µM | Cc1cc(Oc2cccc(C3(c4ccsc4)CC(=O)C(Sc4ccccc4Cl)C(=O)N3)n2)ccc1F (stereo not drawn) [Example 51, 5-((2-chlorophenyl)thio)-6′-(4-fluoro-3-methyl-phenoxy)-4-hydroxy-2-(thiophen-3-yl)-2,3-dihydro-[2,2′-bipyridin]-6(1H)-one]
7 | 0.011 µM | O=C1CC(c2ccsc2)(c2cccc(Oc3cccc(F)c3F)n2)NC(=O)C1Sc1ccccc1Cl (stereo not drawn) [Example 53, 3-(2-chlorophenyl)sulfanyl-6-[6-(2,3-difluoro-phenoxy)-2-pyridyl]-6-(3-thienyl)piperidine-2,4-dione]
8 | 0.201 µM | O=C1CC(c2ccsc2)(c2cccc(Oc3cncnc3)n2)NC(=O)C1Sc1ccccc1Cl (stereo not drawn) [Example 54, 3-(2-chlorophenyl)sulfanyl-6-(6-pyrimidin-5-yloxy-2-pyridyl)-6-(3-thienyl)piperidine-2,4-dione]
9 | 0.056 µM | COc1ccc(Oc2cccc(C3(c4ccsc4)CC(=O)C(Sc4ccccc4Cl)C(=O)N3)n2)cc1 (stereo not drawn) [Example 59, 3-(2-chlorophenyl)sulfanyl-6-[6-(4-methoxyphenoxy)-2-pyridyl]-6-(3-thienyl) piperidine-2,4-dione]
10 | 0.009 µM | O=C1CC(c2ccsc2)(c2cccc(Oc3ccc4c(c3)CCC4)n2)NC(=O)C1Sc1ccccc1Cl (stereo not drawn) [Example 60, 5-((2-chlorophenyl)thio)-6′-((2,3-dihydro-1H-inden-5-yl)oxy)-4-hydroxy-2-(thiophen-3-yl)-2,3-dihydro-[2,2′-bipyridin]-6(1H)-one]
11 | 0.037 µM | O=C1CC(c2ccsc2)(c2cccc(Oc3cccc(Cl)c3)n2)NC(=O)C1Sc1ccccc1Cl (stereo not drawn) [Example 63, 6′-(3-chlorophenoxy)-5-((2-chlorophenyl)thio)-4-hydroxy-2-(thiophen-3-yl)-2,3-dihydro-[2,2′-bipyridin]-6(1H)-one]
12 | 0.126 µM | COc1cccc(Oc2cccc(C3(c4ccsc4)CC(=O)C(Sc4ccccc4Cl)C(=O)N3)n2)c1 (stereo not drawn) [Example 64, 3-(2-chlorophenyl)sulfanyl-6-[6-(3-methoxyphenoxy)-2-pyridyl]-6-(3-thienyl) piperidine-2,4-dione]
13 | 0.008 µM | O=C1CC(c2ccsc2)(c2cccc(OCc3ccccc3)n2)NC(=O)C1Sc1ccccc1Cl (stereo not drawn) [Example 68, 6′-(benzyloxy)-5-((2-chlorophenyl)thio)-4-hydroxy-2-(thiophen-3-yl)-2,3-dihydro-[2,2′-bipyridin]-6(1H)-one]
14 | 0.056 µM | O=C1CC(c2ccsc2)(c2cccc(Oc3cccnc3)n2)NC(=O)C1Sc1ccccc1Cl (stereo not drawn) [Example 71, 3-((2-chlorophenyl)thio)-6-(6-(pyridin-3-yloxy)pyridin-2-yl)-6-(thiophen-3-yl)piperidine-2,4-dione]
15 | 0.056 µM | O=C1CC(c2ccsc2)(c2cccc(Oc3cccc(F)c3)n2)NC(=O)C1Sc1ccccc1Cl (stereo not drawn) [Example 80, 3-(2-chlorophenyl)sulfanyl-6-[6-(3-fluorophenoxy)-2-pyridyl]-6-(3-thienyl) piperidine-2,4-dione]
16 | 0.229 µM | O=C1CC(c2ccsc2)(c2cccc(OCCC3CC3)n2)NC(=O)C1Sc1ccccc1Cl (stereo not drawn) [Example 81, 3-((2-chlorophenyl)thio)-6-(6-(2-cyclopropyl-ethoxy)pyridin-2-yl)-6-(thiophen-3-yl)piperidine-2,4-dione]
17 | 0.018 µM | CN(C)c1cccc(C2(c3ccsc3)CC(=O)C(Sc3ccccc3Cl)C(=O)N2)n1 (stereo not drawn) [Example 85, 3-((2-chlorophenyl)thio)-6-(6-(dimethylamino)pyridin-2-yl)-6-(thiophen-3-yl)piperidine-2,4-dione]

Continued, compound first:

Row | Structure (SMILES) | IC50
18 | O=C1CC(c2ccsc2)(c2ccccc2O)NC(=O)C1Sc1ccccc1Cl (stereo not drawn) [Example 36, 3-(2-chlorophenyl)sulfanyl-6-(2-hydroxyphenyl)-6-(3-thienyl)piperidine-2,4-dione] | 0.021 µM and 0.008 µM and 0.025 µM
19 | O=C1CC(c2ccc(N3CCOCC3)cc2)(c2cccc(Nc3ccc(F)cc3)n2)NC(=O)C1Sc1ccccc1Cl (stereo not drawn) [Example 39, 3-((2-chlorophenyl)thio)-6-(6-((4-fluorophenyl)amino)pyridin-2-yl)-6-(4-morpholinophenyl)piperidine-2,4-dione] | 0.003 µM and 0.012 µM
20 | O=C1CC(c2ccc(N3CCOCC3)cc2)(c2cscn2)NC(=O)C1Sc1ccccc1Cl (stereo not drawn) [Example 42, 3-((2-chlorophenyl)thio)-6-(4-morpholinophenyl)-6-(thiazol-4-yl) piperidine-2,4-dione] | 0.005 µM and 0.01 µM and 0.017 µM
21 | O=C1CC(c2ccc(N3CCCCC3)cc2)(c2ccsc2)NC(=O)C1Sc1cc(O)ccc1Cl (stereo not drawn) [Example 43] | 0.017 µM
22 | O=C1CC(c2ccc(N3CC4(COC4)C3)cc2)(c2ccsc2)NC(=O)C1Sc1ccccc1Cl (stereo not drawn) [Example 45, 3-(2-chlorophenyl) sulfanyl-6-[4-(2-oxa-6-azaspiro[3.3]heptan-6-yl)phenyl]-6-(3-thienyl)piperidine-2,4-dione] | 0.069 µM
23 | O=C1CC(c2ccsc2)(c2cccc(OC3CCCC3)n2)NC(=O)C1Sc1ccccc1Cl (stereo not drawn) [Example 48, 3-((2-chlorophenyi)lliio)-6-(6-(cyclopentyloxy)pyridin-2-yl)-6-(thiophen-3-yl)piperidine-2 .4-dione] | 0.052 µM
24 | O=C1CC(c2ccsc2)(c2cccc(Oc3ccc(F)cc3F)n2)NC(=O)C1Sc1ccccc1Cl (stereo not drawn) [Example 50, 3-(2-chlorophenyl) sulfanyl-6-[6-(2,4-difluorophenoxy)-2-pyridyl]-6-(3-thienyl)piperidine-2,4-dione] | 0.022 µM
25 | O=C1CC(c2ccsc2)(c2cccc(Oc3ccccc3F)n2)NC(=O)C1Sc1ccccc1Cl (stereo not drawn) [Example 52, 3-(2-chlorophenyl)sulfanyl-6-[6-(2-fluorophenoxy)-2-pyridyl]-6-(3-thienyl)piperidine-2,4-dione] | 0.045 µM
26 | O=C1CC(c2ccsc2)(c2cccc(Oc3ccc(Cl)cc3)n2)NC(=O)C1Sc1ccccc1Cl (stereo not drawn) [Example 58, 6′-(4-chlorophenoxy)-5-((2-chlorophenyl)thio)-4-hydroxy-2-(thiophen-3-yl)-2,3-dihydro-[2,2′-bipyridin]-6(1H)-one] | 0.01 µM
27 | COc1ccccc1Oc1cccc(C2(c3ccsc3)CC(=O)C(Sc3ccccc3Cl)C(=O)N2)n1 (stereo not drawn) [Example 61, 3-(2-chlorophenyl)sulfanyl-6-[6-(2-methoxyphenoxy)-2-pyridyl]-6-(3-thienyl) piperidine-2,4-dione] | 0.02 µM
28 | O=C1CC(c2ccsc2)(c2cccc(Oc3cc(F)cc(F)c3)n2)NC(=O)C1Sc1ccccc1Cl (stereo not drawn) [Example 62, 3-(2-chlorophenyl)sulfanyl-6-[6-(3,5-difluoro-phenoxy)-2-pyridyl]-6-(3-thienyl)piperidine-2,4-dione] | 0.036 µM
29 | CCC1CN(c2ccc(C3(c4ccsc4)CC(=O)C(Sc4ccccc4Cl)C(=O)N3)cc2)CCO1 (stereo not drawn) [Example 66, 3-(2-chlorophenyl)sulfanyl-6-[4-(2-ethylmorpholin-4-yl)phenyl]-6-(3-thienyl) piperidine-2,4-dione] | 0.089 µM
30 | O=C1CC(c2ccc(N3CCC(F)(F)CC3)cc2)(c2ccsc2)NC(=O)C1Sc1ccccc1Cl (stereo not drawn) [Example 72, 3-(2-chlorophenyl)sulfanyl-6-[4-(4,4-difluoro-1-piperidyl)phenyl]-6-(3-thienyl)piperidine-2,4-dione] | 0.025 µM
31 | CC(C)Oc1nc(C2(c3ccsc3)CC(=O)C(Sc3ccccc3Cl)C(=O)N2)ccc1N1CCOCC1 (stereo not drawn) [Example 73, 3-((2-chlorophenyl)thio)-6-(6-isopropoxy-5-morpholinopyridin-2-yl)-6-(thiophen-3-yl) piperidine-2,4-dione] | 0.111 µM
32 | CCOc1cccc(C2(c3ccsc3)CC(=O)C(Sc3ccccc3Cl)C(=O)N2)n1 (stereo not drawn) [Example 74, 3-(2-chlorophenyl)sulfanyl-6-(6-ethoxy-2-pyridyl)-6-(3-thienyl)piperidine-2,4-dione] | 0.014 µM
33 | CC(C)COc1cccc(C2(c3ccsc3)CC(=O)C(Sc3ccccc3Cl)C(=O)N2)n1 (stereo not drawn) [Example 75, 3-(2-chlorophenyl)sulfanyl-6-(6-isobutoxy-2-pyridyl)-6-(3-thienyl)piperidine-2,4-dione] | 0.07 µM
34 | O=C1CC(c2ccsc2)(c2cccc(Oc3ccc(OC(F)(F)F)cc3)n2)NC(=O)C1Sc1ccccc1Cl (stereo not drawn) [Example 76, 3-(2-chlorophenyl)sulfanyl-6-(3-thienyl)-6-[6-[4-(trifluoromethoxy)phenoxy]-2-pyridyl] piperidine-2,4-dione] | 0.015 µM
35 | O=C1CC(c2ccsc2)(c2cccc(Oc3cccc4cccnc34)n2)NC(=O)C1Sc1ccccc1Cl (stereo not drawn) [Example 88, 33-(2-chlorophenyl) sulfanyl-6-[6-(8-quinolyloxy)-2-pyridyl]-6-(3-thienyl)piperidine-2,4-dione] | 0.017 µM
36 | O=C1CC(c2ccsc2)(c2cccc(Oc3cccc4ccncc34)n2)NC(=O)C1Sc1ccccc1Cl (stereo not drawn) [Example 89, 3-(2-chlorophenyl)sulfanyl-6-[6-(8-iso-quinolyloxy)-2-pyridyl]-6-(3-thienyl)piperidine-2,4-dione] | 0.018 µM

— US20170001990A1 (Genentech, Inc., priority 2014, published 2017)
